According to ChEMBL document CHEMBL1146143, “New ligand-based approach for the discovery of antitrypanosomal compounds” (2006):

The compounds below were run on Trypanosoma cruzi (assay: Antitrypanosomal activity against Trypanosoma cruzi amastigotes at 100 ug/ml).
Type: functional
Compound `CN1CC(=O)N(C)c2cc([N+](=O)[O-])ccc21` has an Activity of 85.4%. `O=C1Nc2cc([N+](=O)[O-])ccc2N2CCCC12` (stereo not given) showed an Activity of 30.2%. Work on `O=C(Cn1ccnc1[N+](=O)[O-])NCc1ccccc1` [BENZNIDAZOLE] yielded an Activity of 96.6%. `CC1CS(=O)(=O)CCN1/N=C/c1ccc([N+](=O)[O-])o1` (stereo not given) [NIFURTIMOX] showed an Activity of 100%.

What follows are compounds tested on J774 (assay: Unspecific cytotoxicity against murine J774 macrophages at 10 ug/ml).
Type: functional, Mus musculus
Work on `CN1CC(=O)N(C)c2cc([N+](=O)[O-])ccc21` yielded an Activity of 0%. With `O=C1Nc2cc([N+](=O)[O-])ccc2N2CCCCC12` (stereo not given) the Activity was 5.6%. In the case of `O=C1Nc2cc([N+](=O)[O-])ccc2N2Cc3ccccc3CC12` (stereo not given), the Activity is reported as 0%. Compound `CN1C(=O)C[N+](C)(C)c2ccc([N+](=O)[O-])cc21.[Cl-]` has an Activity of 10.5%. `O=C1CN(CCCCCCCl)c2ccc([N+](=O)[O-])cc2N1` gave an Activity of 32.9%. For `O=C(CCl)Nc1cc([N+](=O)[O-])ccc1N1CCCCC1`, the Activity was 6.3%. Compound `O=C1Nc2cc([N+](=O)[O-])ccc2N2CCCC12` (stereo not given) has an Activity of 0%. Work on `CN1C(=O)CN(CCCCCCl)c2ccc([N+](=O)[O-])cc21` yielded an Activity of 17.8%. In the case of `O=C(Cn1ccnc1[N+](=O)[O-])NCc1ccccc1` [BENZNIDAZOLE], the Activity is reported as 1.6%. Compound `CC1CS(=O)(=O)CCN1/N=C/c1ccc([N+](=O)[O-])o1` (stereo not given) [NIFURTIMOX] has an Activity of 0.6%.

These compounds were tested on Trypanosoma cruzi (assay: Antitrypanosomal activity against Trypanosoma cruzi epimastigotes at 100 ug/ml).
Type: functional
In the case of `CN1CC(=O)N(C)c2cc([N+](=O)[O-])ccc21`, the Activity is reported as 72.7%. Work on `O=C1Nc2cc([N+](=O)[O-])ccc2N2CCCCC12` (stereo not given) yielded an Activity of 77%. `O=C1Nc2cc([N+](=O)[O-])ccc2N2Cc3ccccc3CC12` (stereo not given) showed an Activity of 72.1%. With `CN1C(=O)C[N+](C)(C)c2ccc([N+](=O)[O-])cc21.[Cl-]` the Activity was 67.2%. Work on `O=C1CN(CCCCCCCl)c2ccc([N+](=O)[O-])cc2N1` yielded an Activity of 90.9%. With `O=C(CN1CCCCC1)Nc1cc([N+](=O)[O-])ccc1Cl` the Activity was 11%. `O=C(CN1CCCCC1)Nc1cc([N+](=O)[O-])ccc1F` showed an Activity of 14.3%. `O=C(CCl)Nc1cc([N+](=O)[O-])ccc1N1CCCCC1` showed an Activity of 84%. With `O=C1Nc2cc([N+](=O)[O-])ccc2N2CCCC12` (stereo not given) the Activity was 90.5%. `CN1C(=O)CN(CCCCCCl)c2ccc([N+](=O)[O-])cc21` was tested, and the Activity was 83.3%. For `CC1CS(=O)(=O)CCN1/N=C/c1ccc([N+](=O)[O-])o1` (stereo not given) [NIFURTIMOX], the Activity was 98.7%.

Each compound was assayed on Trypanosoma cruzi (assay: Antitrypanosomal activity against Trypanosoma cruzi amastigotes at 1 ug/ml).
Type: functional
Compound `O=C(Cn1ccnc1[N+](=O)[O-])NCc1ccccc1` [BENZNIDAZOLE] has an Activity of 83.2%. `CC1CS(=O)(=O)CCN1/N=C/c1ccc([N+](=O)[O-])o1` (stereo not given) [NIFURTIMOX] was tested, and the Activity was 88.1%.

These compounds were tested on J774 (assay: Unspecific cytotoxicity against murine J774 macrophages at 1 ug/ml).
Type: functional, Mus musculus
Work on `CN1CC(=O)N(C)c2cc([N+](=O)[O-])ccc21` yielded an Activity of 0%. With `O=C1Nc2cc([N+](=O)[O-])ccc2N2CCCCC12` (stereo not given) the Activity was 2.4%. `O=C1Nc2cc([N+](=O)[O-])ccc2N2Cc3ccccc3CC12` (stereo not given) showed an Activity of 0%. In the case of `CN1C(=O)C[N+](C)(C)c2ccc([N+](=O)[O-])cc21.[Cl-]`, the Activity is reported as 9.8%. Compound `O=C1CN(CCCCCCCl)c2ccc([N+](=O)[O-])cc2N1` has an Activity of 16.6%. For `O=C(CCl)Nc1cc([N+](=O)[O-])ccc1N1CCCCC1`, the Activity was 8.1%. `O=C1Nc2cc([N+](=O)[O-])ccc2N2CCCC12` (stereo not given) was tested, and the Activity was 0%. `CN1C(=O)CN(CCCCCCl)c2ccc([N+](=O)[O-])cc21` showed an Activity of 0%. Compound `O=C(Cn1ccnc1[N+](=O)[O-])NCc1ccccc1` [BENZNIDAZOLE] has an Activity of 1.9%. Work on `CC1CS(=O)(=O)CCN1/N=C/c1ccc([N+](=O)[O-])o1` (stereo not given) [NIFURTIMOX] yielded an Activity of 0%.

Each compound was assayed on Mus musculus (assay: Antitrypanosomal activity against Trypanosoma cruzi infected NMRI mice at 50 mg/kg/day).
Type: functional
`CN1CC(=O)N(C)c2cc([N+](=O)[O-])ccc21` gave an Activity of 60.7%. `CC1CS(=O)(=O)CCN1/N=C/c1ccc([N+](=O)[O-])o1` (stereo not given) [NIFURTIMOX] gave an Activity of 100%.

Each compound was assayed on Trypanosoma cruzi (assay: Antitrypanosomal activity against Trypanosoma cruzi epimastigotes at 1 ug/ml).
Type: functional
`CN1CC(=O)N(C)c2cc([N+](=O)[O-])ccc21` showed an Activity of 22.5%. Compound `O=C1Nc2cc([N+](=O)[O-])ccc2N2CCCCC12` (stereo not given) has an Activity of 3.9%. Work on `O=C1Nc2cc([N+](=O)[O-])ccc2N2Cc3ccccc3CC12` (stereo not given) yielded an Activity of 19.4%. `CN1C(=O)C[N+](C)(C)c2ccc([N+](=O)[O-])cc21.[Cl-]` showed an Activity of 0.9%. For `O=C1CN(CCCCCCCl)c2ccc([N+](=O)[O-])cc2N1`, the Activity was 23.2%. With `O=C(CN1CCCCC1)Nc1cc([N+](=O)[O-])ccc1Cl` the Activity was 21.9%. In the case of `O=C(CN1CCCCC1)Nc1cc([N+](=O)[O-])ccc1F`, the Activity is reported as 0%. `O=C(CCl)Nc1cc([N+](=O)[O-])ccc1N1CCCCC1` showed an Activity of 7.1%. `O=C1Nc2cc([N+](=O)[O-])ccc2N2CCCC12` (stereo not given) gave an Activity of 25.6%. `CN1C(=O)CN(CCCCCCl)c2ccc([N+](=O)[O-])cc21` was tested, and the Activity was 15%. `CC1CS(=O)(=O)CCN1/N=C/c1ccc([N+](=O)[O-])o1` (stereo not given) [NIFURTIMOX] showed an Activity of 75.5%.

The compounds below were run on Trypanosoma cruzi (assay: Antitrypanosomal activity against Trypanosoma cruzi epimastigotes at 10 ug/ml).
Type: functional
In the case of `CN1CC(=O)N(C)c2cc([N+](=O)[O-])ccc21`, the Activity is reported as 21.6%. `O=C1Nc2cc([N+](=O)[O-])ccc2N2CCCCC12` (stereo not given) was tested, and the Activity was 30.9%. Compound `O=C1Nc2cc([N+](=O)[O-])ccc2N2Cc3ccccc3CC12` (stereo not given) has an Activity of 29.4%. `CN1C(=O)C[N+](C)(C)c2ccc([N+](=O)[O-])cc21.[Cl-]` showed an Activity of 9%. `O=C1CN(CCCCCCCl)c2ccc([N+](=O)[O-])cc2N1` showed an Activity of 72.1%. For `O=C(CN1CCCCC1)Nc1cc([N+](=O)[O-])ccc1Cl`, the Activity was 1.3%. `O=C(CN1CCCCC1)Nc1cc([N+](=O)[O-])ccc1F` was tested, and the Activity was 4.4%. `O=C(CCl)Nc1cc([N+](=O)[O-])ccc1N1CCCCC1` gave an Activity of 34.8%. Compound `O=C1Nc2cc([N+](=O)[O-])ccc2N2CCCC12` (stereo not given) has an Activity of 70.3%. For `CN1C(=O)CN(CCCCCCl)c2ccc([N+](=O)[O-])cc21`, the Activity was 82.2%. `CC1CS(=O)(=O)CCN1/N=C/c1ccc([N+](=O)[O-])o1` (stereo not given) [NIFURTIMOX] was tested, and the Activity was 90%.

Each compound was assayed on J774 (assay: Unspecific cytotoxicity against murine J774 macrophages at 100 ug/ml).
Type: functional, Mus musculus
In the case of `CN1CC(=O)N(C)c2cc([N+](=O)[O-])ccc21`, the Activity is reported as 0%. For `O=C1Nc2cc([N+](=O)[O-])ccc2N2CCCCC12` (stereo not given), the Activity was 34.2%. `O=C1Nc2cc([N+](=O)[O-])ccc2N2Cc3ccccc3CC12` (stereo not given) gave an Activity of 50.4%. `CN1C(=O)C[N+](C)(C)c2ccc([N+](=O)[O-])cc21.[Cl-]` was tested, and the Activity was 64.8%. Work on `O=C1CN(CCCCCCCl)c2ccc([N+](=O)[O-])cc2N1` yielded an Activity of 97.4%. `O=C(CCl)Nc1cc([N+](=O)[O-])ccc1N1CCCCC1` was tested, and the Activity was 24.9%. `O=C1Nc2cc([N+](=O)[O-])ccc2N2CCCC12` (stereo not given) showed an Activity of 23.6%. In the case of `CN1C(=O)CN(CCCCCCl)c2ccc([N+](=O)[O-])cc21`, the Activity is reported as 99.5%. Compound `O=C(Cn1ccnc1[N+](=O)[O-])NCc1ccccc1` [BENZNIDAZOLE] has an Activity of 1.4%. `CC1CS(=O)(=O)CCN1/N=C/c1ccc([N+](=O)[O-])o1` (stereo not given) [NIFURTIMOX] showed an Activity of 25.9%.

What follows are compounds tested on Trypanosoma cruzi (assay: Antitrypanosomal activity against Trypanosoma cruzi amastigotes at 10 ug/ml).
Type: functional
With `O=C1CN(CCCCCCCl)c2ccc([N+](=O)[O-])cc2N1` the Activity was 100%. `O=C1Nc2cc([N+](=O)[O-])ccc2N2CCCC12` (stereo not given) was tested, and the Activity was 13.3%. `O=C(Cn1ccnc1[N+](=O)[O-])NCc1ccccc1` [BENZNIDAZOLE] showed an Activity of 9.2%. Work on `CC1CS(=O)(=O)CCN1/N=C/c1ccc([N+](=O)[O-])o1` (stereo not given) [NIFURTIMOX] yielded an Activity of 94.4%.
